# Measured values: patent US5753614A, “Nisin compositions for use as enhanced, broad range bactericides” (AMBI Inc., priority 1995, dated 1998)
# What was measured:
# Listeria monocytogenes [1] = test: Bactericidal activity towards Listeria monocytogenes in milk; type: cell-based; details: for % Survival 2 hr: L. monocytogenes in milk
# Method: (§1) All tests in the following examples were performed at 37° C. The efficacy of the enhanced broad range bactericides was determined by assaying bactericidal activity as measured by the percent bacterial survival after treatment with the bactericide. Generally, after incubation of a 10^7 cell per ml suspension of target species with the novel bactericide for specified lengths of time, bacteria were collected by centrifugation for 2 minutes. The bacterial pellet was washed free of the bactericide with a rescue buffer, termed herein Phage buffer (50 mM Tris-HCl buffer pH 7.8, 1 mM MgSO4, 4 mM CaCl2, 0.1M Nacl, and 0.1% gelatin), resuspended and serially diluted into Phage buffer, and 100 μl of the suspended bacteria were spread on nutrient agar plates. Surviving bacteria were determined by scoring colony forming units (CFU) after incubation for 24-48 hours at 37° C.
# An example of where the application of nisin is limited by its available activity is illustrated by the data in Table 15B.
# (§2) Incubations were in milk at 37° C.
# S. typhimurium = test: Bactericidal activity, percent survival of S. typhimurium suspension; type: cell-based, Salmonella typhimurium; details: for % Survival at 2 hours: S. typhimurium
# Method: as §1
# The control (Test #1) is identical to the control of Example 1 (Table 1).
# E. coli = test: Bactericidal activity, percent survival of E. coli at 2 hours; type: cell-based, Escherichia coli; details: for Percentage E. coli Survival at 2 hours: Tris pH 8.0
# Method: as §1
# The effects of the bactericide were measured as a function of percentage bacteria survival after 2 hours.
# K. pneumoniae = test: Bactericidal activity, percent survival of K. pneumoniae; type: cell-based, Klebsiella pneumoniae
# Method: as §1
# The effect was measured as a function of percentage bacterial survival after 2 hours.
# [2] = tested on: S. typhimurium on chicken muscle; test: Bactericidal activity towards S. typhimurium on chicken muscle (unadhered cells); type: cell-based, Salmonella typhimurium
# Method: Incubations were performed in either 50 mM sodium acetate, pH 5.0, or 20 mM Tris, pH 8.0 at 37° C.
# Cubes of chicken muscle were cleansed with sodium hypochlorite and povidone iodine prior to use. To inoculate the tissue, the cubes of chicken muscle were dipped into a 10^8 cells/ml suspension of S. typhimurium in 20 mM Tris HCl, pH 8.0. Excess moisture was removed from dipped cubes by tapping. The chicken samples were placed into sufficient buffer containing the nisin composition to cover the tissue and incubated for 2 hours at 37° C. after which the tissue was removed to sufficient Phage buffer to cover the tissue. The bacteria remaining in the test solution were collected by centrifugation, washed with Phage buffer, and combined with bacteria washed from the tissue by Phage buffer. The combined samples (termed "unadhered" cells) were serially diluted and 100 μl aliquots were plated for determination of surviving bacteria.
# (§3) Cubes of chicken muscle were cleansed with sodium hypochlorite and povidone iodine prior to use. To inoculate the tissue, the cubes of chicken muscle were dipped into a 10^8 cells/ml suspension of S. typhimurium in 20 mM Tris HCl, pH 8.0. Excess moisture was removed from dipped cubes by tapping. The tissue was placed into sufficient buffer containing the nisin compositions to cover the tissue, and incubated for 2 hours at 37° C. after which the tissue was removed to sufficient Phage buffer to cover the tissue. The bacteria remaining in the test solution were collected by centrifugation, washed with Phage buffer, and combined with bacteria washed from the tissue by Phage buffer. The combined samples (termed "unadhered" cells) were serially diluted and 100 μl aliquots were plated for determination of surviving bacteria.
# as §3, with “cleaned” for “cleansed”, “50” for “20”, “sodium acetate buffer,” for “Tris HCl,”, “5.0.” for “8.0.”, “containing” for “containing the”
# Staphylococcus aureus = test: Bactericidal activity towards Staphylococcus aureus, influence of pH and EDTA; type: cell-based; details: S. aureus
# Method: as §1
# Incubations were performed in 50 mM sodium acetate buffer, pH 5.0 or 20 m
# TrisHCl buffer, pH 8.0 at 37° C.
# Listeria monocytogenes [3] = test: Bactericidal activity towards Listeria monocytogenes in Tris buffer; type: cell-based; details: L. monocytogenes
# Method: as §1
# (§4) Incubations were performed in 20 mM TrisHCl, pH 8.0 at 37° C.
# Coryneform bacteria = test: Bactericidal activity towards Coryneform bacteria; type: cell-based, mixed population of axillary Coryneform bacteria
# Method: as §1, §4
# Streptococcus mutans [4] = test: Kinetics of bactericidal activity towards Streptococcus mutans; type: cell-based; details: S. mutans, nisin 0 with 1.0 mM EDTA, pH 7.3
# Method: The suspensions were incubated for various times ranging from 0.5 to 60 minutes with the bactericides. The bactericidal efficacy of the bactericides was estimated by determining the percent survival of bacteria.
# Incubations were performed in 20 mM TrisHCl, pH 7.3 at 37° C.
# Escherichia coli = test: Rapid bactericidal activity towards Escherichia coli (1 min); type: cell-based; details: E. coli; EDTA 1.0 mM, nisin 0; 20 mM Tris pH 7.0
# Method: as §1
# Incubations were performed in 20 mM Tris, pH 7.0 at 37° C.
# Streptococcus agalactiae = test: Bactericidal activity towards Streptococcus agalactiae in milk; type: cell-based; details: S. agalactiae in milk
# Method: as §1
# However, the combination of the two agents, 0.1% monolaurin and nisin 0.2 μg/ml, is extremely potent towards S. agalactiae. […] Thus, when the application of nisin is limited by its available activity, a bactericide comprising nisin with a surfactant can be expected to be more useful.
# as §2
# Streptococcus mutans [5] = test: Bactericidal activity towards Streptococcus mutans at 2 hr; type: cell-based; details: S. mutans; nisin 0.1 μg/ml, EDTA 0; 20 mM TrisHCl pH 8.0
# Method: as §1, §4
# [6] = nisin 3.0 μg/ml, EDTA 0, pH 8.0
compound,measurement,setting,value
monooleate,% Survival 2 hr,"Listeria monocytogenes [1]; monooleate 0.1%, nisin 0",67%
same,% Survival 2 hr,"Listeria monocytogenes [1]; monooleate 1.0%, nisin 0",63%
same,bactericidal activity towards L. monocytogenes (in words),"Listeria monocytogenes [1]; monooleate by itself, in milk",no bactericidal activity
O=C([O-])CN(CCN(CC(=O)[O-])CC(=O)O)CC(=O)O.[Na+].[Na+] [EDTA],Percentage S. typhimurium Survival at 3 hours,"S. typhimurium; EDTA 20 mM, nisin 0, 20 mM Tris pH 8.0",2.5%
same,% Survival at 2 hours,"S. typhimurium; EDTA 1.0 mM, BSA 1.0%, nisin 0, 20 mM Tris pH 8.0",63%
same,% Survival at 2 hours,"S. typhimurium; EDTA 2.0 mM, nisin 0, 20 mM Tris pH 8.0",8.7%
same,% Survival at 2 hours,"S. typhimurium; EDTA 2.0 mM, nisin 0, 50 mM sodium acetate pH 5.0",38.7%
same,% Survival at 2 hours,"S. typhimurium; EDTA 10 mM, nisin 0, pH 5.0",15.2%
same,% Survival at 2 hours,"S. typhimurium; EDTA 10 mM, nisin 0, pH 8.0",14%
same,% Survival at 2 hours,"S. typhimurium; EDTA 50 mM, nisin 0, pH 5.0",3.5%
same,% Survival at 2 hours,"S. typhimurium; EDTA 50 mM, nisin 0, pH 8.0",11.4%
same,% Survival at 2 hours,"S. typhimurium; EDTA 100 mM, nisin 0, pH 8.0",45%
same,Percentage E. coli Survival at 2 hours,"E. coli; EDTA 20 mM, nisin 0",14.5%
same,% Survival at 2 hours,"K. pneumoniae; EDTA 20 mM, nisin 0, Tris pH 8.0",22%
same,% Survival at 2 hours,"[2]; EDTA 1.0 mM, BSA 1.0%, nisin 0, pH 8.0",27%
same,% Survival at 2 hours (Unadhered cells),"[2]; EDTA 10 mM, nisin 0, methyl paraben 0, 50 mM Na acetate pH 5.0 (Table 10)",11.8%
same,% Survival at 2 hours (Unadhered cells),"[2]; EDTA 10 mM, nisin 0, pH 5.0 (Table 7)",6.4%
same,% Survival at 2 hours (Unadhered cells),"[2]; EDTA 10 mM, nisin 0, pH 8.0",5.2%
same,% Survival 2 hr,"Staphylococcus aureus; EDTA 0.3 mM, nisin 0, pH 8.0",100%
same,% Survival 2 hr,"Staphylococcus aureus; EDTA 1.0 mM, nisin 0, pH 8.0",81%
same,% Survival 2 hr,"Staphylococcus aureus; EDTA 3.0 mM, nisin 0, pH 5.0",100%
same,% Survival 2 hr,"Staphylococcus aureus; EDTA 3.0 mM, nisin 0, pH 8.0",100%
same,% Survival 2 hr,"Staphylococcus aureus; EDTA 10 mM, nisin 0, pH 8.0",100%
same,% Survival 2 hr,"Staphylococcus aureus; EDTA 30 mM, nisin 0, pH 8.0",100%
same,% Survival after 2 hr,"Listeria monocytogenes [3]; EDTA 1.0 mM, nisin 0, 20 mM TrisHCl pH 8.0",84%
same,% Survival 2 hr,"Coryneform bacteria; EDTA 0.3 mM, nisin 0, 20 mM TrisHCl pH 8.0",4.6%
same,% Survival 2 hr,"Coryneform bacteria; EDTA 1.0 mM, nisin 0, pH 8.0",3.6%
same,% Survival 2 hr,"Coryneform bacteria; EDTA 3.0 mM, nisin 0, pH 8.0",8%
same,% Survival 2 hr,"Coryneform bacteria; EDTA 10 mM, nisin 0, pH 8.0",36%
same,% Survival,Streptococcus mutans [4]; 3 min,100%
same,% Survival,Streptococcus mutans [4]; 60 min,100%
same,% survival at 1 min,Escherichia coli,100%
"CCCCCCCCCCCC(=O)OCC(O)CO (stereo not shown) [Monolaurin, monolaurin]",% survival at 2 h,"Streptococcus agalactiae; monolaurin 0.01%, nisin 0",100%
same,% survival at 2 h,"Streptococcus agalactiae; monolaurin 0.1%, nisin 0",4.5%
Nisin,% Survival at 2 hours,"S. typhimurium; nisin 10 ug/ml, EDTA 0, BSA 0 (Table 8)",51.3%
same,% Survival at 2 hours,"S. typhimurium; nisin 100 ug/ml, EDTA 0, BSA 0 (Table 8)",1.6%
same,% Survival at 2 hours,"S. typhimurium; nisin 100 μg/ml, EDTA 0, pH 5.0",0.6%
same,% Survival at 2 hours,"S. typhimurium; nisin 100 μg/ml, EDTA 0, pH 8.0 (Table 6)",4%
same,Percentage S. typhimurium Survival at 3 hours,"S. typhimurium; nisin 50 μg/ml, EDTA 0, 20 mM Tris pH 8.0",7.0%
same,Percentage S. typhimurium Survival at 3 hours,"S. typhimurium; nisin 100 μg/ml, EDTA 0, 20 mM Tris pH 8.0",1.6%
same,Percentage E. coli Survival at 2 hours,"E. coli; nisin 100 μg/ml, EDTA 0, Triton X-100 0",25%
same,Percentage E. coli Survival at 2 hours,"E. coli; nisin 300 μg/ml, EDTA 0, Triton X-100 0",8.5%
same,% Survival at 2 hours,"K. pneumoniae; nisin 100 μg/ml, EDTA 0, 20 mM Tris pH 8.0, 37°C",50%
same,% Survival at 2 hours,"K. pneumoniae; nisin 300 μg/ml, EDTA 0, Tris pH 8.0",38%
same,% Survival at 2 hours (Unadhered cells),"[2]; nisin 300 ug/ml, 1% BSA, EDTA 0, pH 8.0",0.02%
same,% Survival at 2 hours (Unadhered cells),"[2]; nisin 300 ug/ml, EDTA 0, pH 5.0",0.1%
same,% Survival at 2 hours (Unadhered cells),"[2]; nisin 300 ug/ml, EDTA 0, pH 8.0",7.5%
same,% Survival 2 hr,"Staphylococcus aureus; nisin 3.0 μg/ml, EDTA 0, pH 5.0",0.6%
same,% Survival 2 hr,Staphylococcus aureus; [6],7.4%
same,% Survival after 2 hr,Streptococcus mutans [5],4.3%
same,% Survival after 2 hr,Listeria monocytogenes [3]; [6],0.71%
same,% Survival 2 hr,"Coryneform bacteria; nisin 3 ug/ml, EDTA 0, pH 8.0",0.22%
same,% survival at 2 h,"Streptococcus agalactiae; nisin 0.02 μg/ml, monolaurin 0",100%
same,% survival at 2 h,"Streptococcus agalactiae; nisin 0.2 μg/ml, monolaurin 0",2.2%
same,% Survival 2 hr,"Listeria monocytogenes [1]; nisin 100 μg/ml, monooleate 0",0.56%
Triton X-100,Percentage S. typhimurium Survival at 3 hours,"S. typhimurium; Triton X-100 1.0%, nisin 0, EDTA 0, Tris pH 8.0",37.4%
same,Percentage E. coli Survival at 2 hours,"E. coli; Triton X-100 1.0%, nisin 0, EDTA 0",100%
same,bactericidal activity towards E. coli (in words),"E. coli; Triton X-100 1.0%, tests #3 and #4",no significant bactericidal activity
